# Measurements as given in patent US7135466B2 (Kirin Beer Kabushiki Kaisha, priority 1999, dated 2006).
# Target: T1, c-kit (Homo sapiens, UniProt P10721)
# T1 construct: MO7e (human megakaryocytic leukemia cell line) which had been arrested for 20 hr; endogenous in cells; host or cells: MO7e human megakaryocytic leukemia cell line
# Experiment: Inhibitory activity against c-kit autophosphorylation (MO7e cells, h-SCF)
# Format: cell-based
# Settings: MO7e cells, h-SCF stimulation; read-out: c-kit IC50
# How it was run: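 Phospho-c-kit ELISA: plate-bound PY-20 anti-phosphotyrosine captures lysate, anti-c-kit plus peroxidase-labelled secondary antibody detect, read at 450 nm. Lysates come from 20 hr-arrested MO7e cells given compound for 1 hr before a 5 min 50 ng/ml h-SCF stimulus.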
# T1 sequence (P10721 26-976): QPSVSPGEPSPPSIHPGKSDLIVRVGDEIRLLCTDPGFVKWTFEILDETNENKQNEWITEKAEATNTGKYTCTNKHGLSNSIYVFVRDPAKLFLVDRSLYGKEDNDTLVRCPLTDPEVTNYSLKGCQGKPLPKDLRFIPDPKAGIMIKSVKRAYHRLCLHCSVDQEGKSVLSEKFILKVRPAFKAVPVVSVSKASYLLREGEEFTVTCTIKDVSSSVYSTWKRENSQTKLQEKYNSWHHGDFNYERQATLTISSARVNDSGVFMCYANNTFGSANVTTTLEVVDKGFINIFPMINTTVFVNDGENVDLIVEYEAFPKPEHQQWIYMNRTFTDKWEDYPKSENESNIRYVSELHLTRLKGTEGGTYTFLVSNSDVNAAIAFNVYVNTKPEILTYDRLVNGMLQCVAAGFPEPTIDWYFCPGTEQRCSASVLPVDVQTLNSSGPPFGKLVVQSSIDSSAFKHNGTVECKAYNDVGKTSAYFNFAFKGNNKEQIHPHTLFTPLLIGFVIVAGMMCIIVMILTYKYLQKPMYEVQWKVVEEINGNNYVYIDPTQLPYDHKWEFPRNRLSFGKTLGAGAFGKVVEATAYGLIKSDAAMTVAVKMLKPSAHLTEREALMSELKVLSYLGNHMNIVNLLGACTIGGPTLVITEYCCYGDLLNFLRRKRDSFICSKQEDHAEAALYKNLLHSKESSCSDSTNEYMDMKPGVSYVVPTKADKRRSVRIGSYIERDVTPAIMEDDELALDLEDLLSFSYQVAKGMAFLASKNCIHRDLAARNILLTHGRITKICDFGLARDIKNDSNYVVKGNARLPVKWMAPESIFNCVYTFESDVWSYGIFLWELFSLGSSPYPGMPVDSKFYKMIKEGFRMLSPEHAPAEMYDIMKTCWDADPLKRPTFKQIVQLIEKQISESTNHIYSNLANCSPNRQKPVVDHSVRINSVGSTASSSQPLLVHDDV
row,Compound,IC50 [nM]
1,"COc1cc2nccc(Oc3ccc(NC(=S)NC(=O)c4cc(C)oc4C)c(F)c3)c2cc1OC [Example 1037, N-{4-[(6,7-Dimethoxy-4-quinolyl)oxy]-2-fluorophenyl}-N′-[(2,5-dimethyl-3-furyl)carbonyl]-thiourea]",558
2,"COc1cc2nccc(Oc3ccc(NC(=S)NC(=O)c4sccc4C)c(F)c3)c2cc1OC [Example 1038, N-{4-[(6,7-Dimethoxy-4-quinolyl)oxy]-2-fluorophenyl}-N′-[(3-methyl-2-thienyl)carbonyl]thiourea]",597
3,"COc1cc2nccc(Oc3ccc(NC(=S)NC(=O)c4cc(C)oc4C)cc3F)c2cc1OC [Example 1039, N-{4-[(6,7-Dimethoxy-4-quinolyl)oxy]-3-fluorophenyl}-N′-[(2,5-dimethyl-3-furyl)carbonyl]thiourea]",556
4,"COc1cc2nccc(Oc3ccc(NC(=S)NC(=O)N(C)c4ccccc4)cc3Cl)c2cc1OC [Example 1053, N-{3-Chloro-4-[(6,7-dimethoxy-4-quinolyl)oxy]phenyl}-{[(methylanilino)carbonyl]amino}methanethioamide]",178
5,"COc1cc2nccc(Oc3ccc(NC(=S)NC(=O)C4CC4)cc3F)c2cc1OC [Example 1056, N-Cyclopropylcarbonyl-N′-{4-[(6,7-dimethoxy-4-quinolyl)oxy]-3-fluorophenyl}thiourea]",932
6,"COc1cc2nccc(Oc3ccc(NC(=S)NC(=O)C4CC4c4ccccc4)cc3F)c2cc1OC (stereo not shown) [Example 1057, N-{4-[(6,7-Dimethoxy-4-quinolyl)oxy]-3-fluorophenyl}-N′-[(2-phenylcyclopropyl)carbonyl]thiourea]",447
7,"COc1cc2nccc(Oc3ccc(NC(=S)NC(=O)C4CC4c4ccccc4)cc3Cl)c2cc1OC (stereo not shown) [Example 1059, N-{3-Chloro-4-[(6,7-dimethoxy-4-quinolyl)oxy]phenyl}-N′-[(2-phenylcyclopropyl)carbonyl]thiourea]",550
8,"COc1cc2nccc(Oc3ccc(NC(=S)NC(=O)C4CCCC4)cc3)c2cc1OC [Example 1061, N-Cyclopentylcarbonyl-N′-{4-[(6,7-dimethoxy-4-quinolyl)oxy]phenyl}thiourea]",136
9,"COc1cc2nccc(Oc3ccc(NC(=S)NC(=O)C4CCCCC4)cc3)c2cc1OC [Example 1062, N-Cyclohexylcarbonyl-N′-{4-[(6,7-dimethoxy-4-quinolyl)oxy]phenyl}thiourea]",233
10,"COc1cc2nccc(Oc3ccc(NC(=S)NC(=O)C4CCCC4)c(F)c3)c2cc1OC [Example 1063, N-Cyclopentylcarbonyl-N′-{4-[(6,7-dimethoxy-4-quinolyl)oxy]-2-fluorophenyl}thiourea]",491
11,"COc1cc2nccc(Oc3ccc(NC(=S)NC(=O)C4CCCCC4)c(F)c3)c2cc1OC [Example 1064, N-Cyclohexylcarbonyl-N′-{4-[(6,7-dimethoxy-4-quinolyl)oxy]-2-fluorophenyl}thiourea]",279
12,"COc1cc2nccc(Oc3ccc(NC(=S)NC(=O)CCCCl)c(F)c3)c2cc1OC [Example 1066, N-(4-Chlorobutanoyl)-N′-{4-[(6,7-dimethoxy-4-quinolyl)oxy]-2-fluorophenyl}thiourea]",279
13,"COc1cc2nccc(Oc3ccc(NC(=S)NC(=O)CCSC)c(F)c3)c2cc1OC [Example 1067, N-{4-[(6,7-Dimethoxy-4-quinolyl)oxy]-2-fluorophenyl}-N′-[3-(methylsulfanyl)propanoyl]thiourea]",449
14,"COc1cc2nccc(Oc3ccc(NC(=S)NC(=O)CCCCl)cc3F)c2cc1OC [Example 1068, N-(4-Chlorobutanoyl)-N′-{4-[(6,7-dimethoxy-4-quinolyl)oxy]-3-fluorophenyl}thiourea]",124
15,"COc1cc2nccc(Oc3ccc(NC(=S)NC(=O)CCSC)cc3F)c2cc1OC [Example 1069, N-{4-[(6,7-Dimethoxy-4-quinolyl)oxy]-3-fluorophenyl}-N′-[3-(methylsulfanyl)propanoyl]thiourea]",189
16,"COc1ccc(C(=O)NC(=S)Nc2ccc(Oc3ccnc4cc(OC)c(OC)cc34)c(F)c2)cc1OC [Example 1070, N-(3,4-Dimethoxybenzoyl)-N′-{4-[(6,7-dimethoxy-4-quinolyl)oxy]-3-fluorophenyl}thiourea]",391

# More lines, now with the values ahead:
row,IC50 [nM],Compound
1,495,"COc1ccc(C(=O)NC(=S)Nc2ccc(Oc3ccnc4cc(OC)c(OC)cc34)c(C)c2C)cc1 [Example 1087, N-{4-[(6,7-Dimethoxy-4-quinolyl)oxy]-2,3-dimethylphenyl}-N′-(4-methoxybenzoyl)thiourea]"
2,552,"COc1cc2nccc(Oc3ccc(NC(=S)NC(=O)c4ccccc4)c(C)c3)c2cc1OC [Example 1099, N-Benzoyl-N′-{4-[(6,7-dimethoxy-4-quinolyl)oxy]-2-methylphenyl}thiourea]"
3,962,"COc1cc2nccc(Oc3ccc(NC(=S)NC(=O)c4ccc([N+](=O)[O-])cc4)cc3C)c2cc1OC [Example 1108, N-{4-[(6,7-Dimethoxy-4-quinolyl)oxy]-3-methylphenyl}-N′-(4-nitrobenzoyl)thiourea]"

# Same assay, conditions: Mo7e, figure in parentheses in −( ); at 1000 nM
row,Compound,inhibition at 1 µM [%]
1,"COc1cc2nccc(Oc3ccc(NC(=S)NC(=O)N4c5ccccc5CCc5ccccc54)cc3)c2cc1OC [Example 1047, N-[10,11-Dihydro-5H-dibenzo(b,f)azepin-5-ylcarbonyl]-N′-{4-[(6,7-dimethoxy-4-quinolyl)oxy]phenyl}thiourea]",7
2,"CCCCCCCCCCCCCC(=O)NC(=S)Nc1ccc(Oc2ccnc3cc(OC)c(OC)cc23)cc1F [Example 1076, N-{4-[(6,7-Dimethoxy-4-quinolyl)oxy]-2-fluorophenyl}-N′-tetradecanoylthiourea]",7
3,"COc1cc2nccc(Oc3ccc(NC(=S)NC(=O)c4ccccc4Cl)c(C)c3C)c2cc1OC [Example 1078, N-(2-Chlorobenzoyl)-N′-{4-[(6,7-dimethoxy-4-quinolyl)oxy]-2,3-dimethylphenyl}thiourea]",32
4,"COc1cc2nccc(Oc3ccc(NC(=S)NC(=O)c4cccc(C)c4)c(C)c3C)c2cc1OC [Example 1079, N-{4-[(6,7-Dimethoxy-4-quinolyl)oxy]-2,3-dimethylphenyl}-N′-(3-methylbenzoyl)thiourea]",25
5,"COc1cc2nccc(Oc3ccc(NC(=S)NC(=O)c4ccc(C)cc4)c(C)c3C)c2cc1OC [Example 1080, N-{4-[(6,7-Dimethoxy-4-quinolyl)oxy]-2,3-dimethylphenyl}-N′-(4-methylbenzoyl)thiourea]",0

# The remaining lines, values ahead:
row,inhibition at 1 µM [%],Compound
1,15,"COc1cc2nccc(Oc3ccc(NC(=S)NC(=O)c4ccc(Cl)cc4)c(C)c3C)c2cc1OC [Example 1082, N-(4-Chlorobenzoyl)-N′-{4-[(6,7dimethoxy-4-quinolyl)oxy]-2,3-dimethylphenyl}thiourea]"
2,30,"COc1cc2nccc(Oc3ccc(NC(=S)NC(=O)c4cccc(Cl)c4)c(C)c3C)c2cc1OC [Example 1083, N-(3-Chlorobenzoyl)-N′-{4-[(6,7-dimethoxy-4-quinolyl)oxy]-2,3-dimethylphenyl}thiourea]"
3,30,"COc1cc2nccc(Oc3ccc(NC(=S)NC(=O)c4ccccc4)c(C)c3C)c2cc1OC [Example 1084, N-Benzoyl-N′-{4-[(6,7-dimethoxy-4-quinolyl)oxy]-2,3-dimethylphenyl}thiourea]"
4,25,"COc1cc2nccc(Oc3ccc(NC(=S)NC(=O)c4ccccc4C)c(C)c3C)c2cc1OC [Example 1085, N-{4-[(6,7-Dimethoxy-4-quinolyl)oxy]-2,3-dimethylphenyl}-N′-(2-methylbenzoyl)thiourea]"
5,23,"COc1cc2nccc(Oc3ccc(NC(=S)NC(=O)c4ccc(F)cc4F)c(C)c3C)c2cc1OC [Example 1088, N-(2,4-Difluorobenzoyl)-N′-{4-[(6,7-dimethoxy-4-quinolyl)oxy]-2,3-dimethylphenyl}thiourea]"
6,28,"COc1cc2nccc(Oc3ccc(NC(=S)NC(=O)c4ccc(Cl)cc4)c(C)c3)c2cc1OC [Example 1089, N-(4-Chlorobenzoyl)-N′-{4-[(6,7-dimethoxy-4-quinolyl)oxy]-2-methylphenyl}thiourea]"
7,30,"COc1cc2nccc(Oc3ccc(NC(=S)NC(=O)c4ccccc4C)c(C)c3)c2cc1OC [Example 1090, N-{4-[(6,7-Dimethoxy-4-quinolyl)oxy]-2-methylphenyl}-N′-(2-methylbenzoyl)thiourea]"
8,39,"COc1cc2nccc(Oc3ccc(NC(=S)NC(=O)c4cccc(F)c4)c(C)c3)c2cc1OC [Example 1091, N-{4-[(6,7-Dimethoxy-4-quinolyl)oxy]-2-methylphenyl}-N′-(3-fluorobenzoyl)thiourea]"
9,32,"COc1cc2nccc(Oc3ccc(NC(=S)NC(=O)c4ccc(F)cc4)c(C)c3)c2cc1OC [Example 1093, N-{4-[(6,7-Dimethoxy-4-quinolyl)oxy]-2-methylphenyl}-N′-(4-fluorobenzoyl)thiourea]"
10,18,"COc1cc2nccc(Oc3ccc(NC(=S)NC(=O)c4ccccc4F)c(C)c3)c2cc1OC [Example 1094, N-{4-[(6,7-Dimethoxy-4-quinolyl)oxy]-2-methylphenyl}-N′-(2-fluorobenzoyl)thiourea]"
11,8,"COc1cc2nccc(Oc3ccc(NC(=S)NC(=O)c4ccccc4Cl)c(C)c3)c2cc1OC [Example 1097, N-(2-Chlorobenzoyl)-N′-{4-[(6,7-dimethoxy-4-quinolyl)oxy]-2-methylphenyl}thiourea]"
12,41,"COc1cc2nccc(Oc3ccc(NC(=S)NC(=O)c4cccc(C)c4)c(C)c3)c2cc1OC [Example 1098, N-{4-[(6,7-Dimethoxy-4-quinolyl)oxy]-2-methylphenyl}-N′-(3-methylbenzoyl)thiourea]"
13,18,"COc1cc2nccc(Oc3ccc(NC(=S)NC(=O)c4cccc(Cl)c4)c(C)c3)c2cc1OC [Example 1100, N-(3-Chlorobenzoyl)-N′-{4-[(6,7-dimethoxy-4-quinolyl)oxy]-2-methylphenyl}thiourea]"
